# Data reported in the NIST ThermoML archive (doi:10.1016/j.jct.2013.03.008).
# ± gives the expanded uncertainty stated by the source.
# Assay: cn = amount concentration of the nth substance listed, in mol/dm3
# Details: 313 K, Ring tensiometer
smiles,measurement,setting,value
CCCCCCCCCCCC(=O)OCC[N+](C)(C)CCC[N+](C)(C)CCOC(=O)CCCCCCCCCCC.[Br-].[Br-] + O,surface tension liquid-gas,c1 = 0.000412,30.2 ± 0.5 mN/m
CCCCCCCCCCCCOC(=O)C[N+](C)(C)CC[N+](C)(C)CC(=O)OCCCCCCCCCCCC.[Br-].[Br-] + O,surface tension liquid-gas,c1 = 0.000168,26.4 ± 0.4 mN/m
CCCCCCCCCCCCOC(=O)C[N+](C)(C)CCC[N+](C)(C)CC(=O)OCCCCCCCCCCCC.[Br-].[Br-] + O,surface tension liquid-gas,c1 = 0.000228,27.2 ± 0.4 mN/m
